Measurements as given in US9096532B2, “Pyrazole inhibitors of COX-2 and sEH” (The Regents of the University of California, priority 2010, dated 2015).
One block for each compound: values may come before it.

Tests used:
[1] = system: HepG2 cells; assay: HepG2 cell viability analysis (MTT); assay type: cell-based; details: Homo sapiens, HepG2; MTT after 24 hours of incubation
Experimental: Cells were plated at 10,000 cell per well in 96-well plates and allowed to attach overnight under the growth conditions described above. […] These compounds were dissolved in 100% DMSO and diluted with EMEM to the desired concentration of 0.1 μM, 1.0 μM, 10 μM, 25 μM, and 50 μM, with a final DMSO concentration of 0.1% for all cell-based in vitro studies. All studies included DMSO as a solvent control. Cell viability was determined using the MTT Cell Viability Assay Kit from ATCC according to manufacturer's instructions. The 96-well plates were measure at 570 nm using SpectroMax 190 plate reader (Molecular Devices, Sunnyvale, Calif.). […] Each concentration was performed in triplicate per 96-well plate and EC50 data are presented as the mean±standard deviation from at least 3 separate experiments performed on separate days.

[2] = target: T1, ovine COX-1 (Ovis aries, UniProt P05979); assay: Cyclooxygenase inhibition assay (COX Fluorescent Inhibitor Screening Assay Kit), COX-1; assay type: biochemical; details: for inhibition at 100 µM: read-out: COX-1 (% inhibition)
T1 construct: purchased Cayman Chemical 700100
T1 sequence (P05979 25-600): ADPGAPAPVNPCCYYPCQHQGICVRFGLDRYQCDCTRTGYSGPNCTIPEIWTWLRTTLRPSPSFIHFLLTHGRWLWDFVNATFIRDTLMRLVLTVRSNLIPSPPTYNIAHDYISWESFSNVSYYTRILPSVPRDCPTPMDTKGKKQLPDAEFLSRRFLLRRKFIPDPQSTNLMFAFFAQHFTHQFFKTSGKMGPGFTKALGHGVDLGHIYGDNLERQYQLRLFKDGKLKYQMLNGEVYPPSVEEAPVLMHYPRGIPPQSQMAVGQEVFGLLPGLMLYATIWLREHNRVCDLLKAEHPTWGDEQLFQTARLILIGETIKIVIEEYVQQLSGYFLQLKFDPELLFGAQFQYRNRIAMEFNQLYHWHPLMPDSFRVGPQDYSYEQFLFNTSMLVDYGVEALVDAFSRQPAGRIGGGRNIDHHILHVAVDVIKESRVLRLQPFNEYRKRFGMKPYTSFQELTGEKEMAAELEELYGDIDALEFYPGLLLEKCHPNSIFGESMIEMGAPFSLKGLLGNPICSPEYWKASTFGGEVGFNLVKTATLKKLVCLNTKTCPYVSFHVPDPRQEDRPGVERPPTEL
Experimental: (§1) Stock solutions of test compounds are dissolved in a minimum volume of DMSO. 10 μl of various concentrations of the test compound solutions, e.g., [I]final between 0.01 and 100 μM, are added to a series of supplied reaction buffer solutions (150 μl, 100 mM Tris-HCl, pH 8.0) with either COX-1 or COX-2 (10 μl) enzyme in the presence of Heme (10 μl) and a fluorometric substrate (10 μl). The reactions are initiated by quickly adding 10 μl of arachidonic acid solution and then incubating the system for two minutes at room temperature. […] The intensity of this fluorescence is proportional to the amount of resorufin, which is proportional to the amount of PGG2 present in the well during the incubation. Percent inhibition is calculated by comparison from the 100% initial activity sample value (no inhibitor).
as §1, with “compounds were” for “compounds are”, “μM, were” for “μM, are”, “reactions were” for “reactions are”, “then incubated” for “then incubating the system”, “inhibition was” for “inhibition is”

[3] = target: T2, human sEH (Homo sapiens, UniProt P34913); assay: sEH IC50 assay, fluorescent-based with CMNPC substrate; assay type: biochemical; details: for IC50: kinetic fluorescent assay, means ± SD of three separate experiments
T2 sequence (P34913 1-555): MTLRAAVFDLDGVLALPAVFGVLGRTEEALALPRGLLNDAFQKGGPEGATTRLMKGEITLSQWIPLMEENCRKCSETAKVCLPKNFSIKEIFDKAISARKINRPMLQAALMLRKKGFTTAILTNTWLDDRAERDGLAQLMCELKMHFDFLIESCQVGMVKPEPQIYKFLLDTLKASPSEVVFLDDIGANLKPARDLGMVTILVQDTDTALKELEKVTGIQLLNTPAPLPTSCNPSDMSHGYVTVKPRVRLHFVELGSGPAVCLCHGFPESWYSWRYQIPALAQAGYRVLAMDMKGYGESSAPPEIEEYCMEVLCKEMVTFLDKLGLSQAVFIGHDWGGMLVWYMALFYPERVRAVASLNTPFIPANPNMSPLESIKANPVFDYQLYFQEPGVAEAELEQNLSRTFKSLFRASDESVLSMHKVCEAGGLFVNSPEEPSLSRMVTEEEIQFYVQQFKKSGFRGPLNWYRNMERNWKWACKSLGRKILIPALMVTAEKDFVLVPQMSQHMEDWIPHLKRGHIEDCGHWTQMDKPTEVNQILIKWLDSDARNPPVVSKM
Experimental: sEH inhibition IC50 values for the compounds presented herein can be assayed by a recombinant affinity assay using purified sEHs, from human, mouse or rat, in a fluorescent-based assay.
For the recombinant affinity assay, purified sEHs (human, mouse and rat) were used in a fluorescent-based assay to determine IC50 values. […] These IC50 values were calculated from at least three separate runs, each in triplicate, to obtain the statistics herein, e.g., standard deviation.

[4] = target: T3, human recombinant COX-2 (Homo sapiens, UniProt P35354); assay: Cyclooxygenase inhibition assay (COX Fluorescent Inhibitor Screening Assay Kit), COX-2; assay type: biochemical
T3 construct: purchased Cayman Chemical 700100
T3 sequence (P35354 18-604): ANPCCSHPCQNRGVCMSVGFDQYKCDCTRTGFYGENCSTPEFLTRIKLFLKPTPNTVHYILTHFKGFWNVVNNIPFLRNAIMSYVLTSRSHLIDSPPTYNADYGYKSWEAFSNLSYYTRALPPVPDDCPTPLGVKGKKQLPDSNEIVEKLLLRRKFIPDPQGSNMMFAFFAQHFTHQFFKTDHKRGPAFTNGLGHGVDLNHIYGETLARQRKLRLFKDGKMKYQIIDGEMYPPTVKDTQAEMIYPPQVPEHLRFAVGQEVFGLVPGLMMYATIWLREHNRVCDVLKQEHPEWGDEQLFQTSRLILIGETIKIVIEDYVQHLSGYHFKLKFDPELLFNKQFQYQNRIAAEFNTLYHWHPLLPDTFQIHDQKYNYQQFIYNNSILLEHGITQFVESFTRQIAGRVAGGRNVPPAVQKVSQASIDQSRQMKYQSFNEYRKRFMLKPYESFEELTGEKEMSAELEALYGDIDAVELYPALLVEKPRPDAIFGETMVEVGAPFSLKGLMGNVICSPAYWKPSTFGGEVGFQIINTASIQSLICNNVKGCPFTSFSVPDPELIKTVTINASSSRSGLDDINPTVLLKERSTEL
Experimental: as §1
as §1, with “compounds were” for “compounds are”, “μM, were” for “μM, are”, “reactions were” for “reactions are”, “then incubated” for “then incubating the system”, “inhibition was” for “inhibition is”

[5] = target: T4, 5-LOX (Homo sapiens, UniProt P09917); assay: Potency against 5-LOX; assay type: biochemical; details: compared with celecoxib
T4 sequence (P09917 1-674): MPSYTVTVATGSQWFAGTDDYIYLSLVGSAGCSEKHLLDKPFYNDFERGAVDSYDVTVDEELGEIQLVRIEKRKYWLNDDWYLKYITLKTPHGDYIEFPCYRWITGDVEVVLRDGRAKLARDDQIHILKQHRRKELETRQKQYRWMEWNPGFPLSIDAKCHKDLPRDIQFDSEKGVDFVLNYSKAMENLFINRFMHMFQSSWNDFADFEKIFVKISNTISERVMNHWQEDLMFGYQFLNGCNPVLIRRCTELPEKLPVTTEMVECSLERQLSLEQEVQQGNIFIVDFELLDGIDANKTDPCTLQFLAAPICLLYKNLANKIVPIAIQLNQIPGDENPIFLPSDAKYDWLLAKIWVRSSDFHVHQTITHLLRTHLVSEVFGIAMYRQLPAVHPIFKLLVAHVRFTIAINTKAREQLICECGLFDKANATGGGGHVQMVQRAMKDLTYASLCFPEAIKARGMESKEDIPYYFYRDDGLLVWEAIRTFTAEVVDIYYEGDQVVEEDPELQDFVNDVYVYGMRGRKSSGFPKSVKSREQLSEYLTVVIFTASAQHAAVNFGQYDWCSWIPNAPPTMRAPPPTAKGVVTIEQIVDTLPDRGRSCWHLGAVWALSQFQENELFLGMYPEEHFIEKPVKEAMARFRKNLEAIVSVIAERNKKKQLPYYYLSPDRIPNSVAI

[6] = Pharmacokinetics in mice by oral cassette dosing; assay type: in vivo; details: oral cassette dosing at 5 mg/kg, blood
[7] = Pharmacokinetics in rats by oral administration
[8] = human recombinant COX-2, triplicate average
[9] = rats, oral administration at 1 mg/kg (n = 4), blood

SMILES: Cc1ccc(-c2cc(C(F)(F)F)nn2-c2ccc(S(N)(=O)=O)cc2)cc1 [Celecoxib, celecoxib, reference compound]
EC50 [1]: 20 ± 4 µM

SMILES: CS(=O)(=O)c1ccc(-n2nc(CNC(=O)NC3CCCCCC3)cc2-c2ccccc2)cc1 [Compound 11b, 1-Cycloheptyl-3-[1-(4-methanesulfonyl-phenyl)-5-phenyl-1H-pyrazol-3-ylmethyl]-urea]
inhibition at 100 µM [2]: 3.4%
Improvement of sEH inhibition ([3]; compared to compound 11a): 10 fold

SMILES: NS(=O)(=O)c1ccc(-n2nc(CCNC(=O)Nc3cccc(C(F)(F)F)c3)cc2-c2ccccc2)cc1 [Compound 15, 4-(5-Phenyl-3-{2-[3-(3-trifluoromethyl-phenyl)-ureido]-ethyl}-pyrazol-1-yl)-benzenesulfonamide]
inhibition at 100 µM [2]: 22%
Improvement of sEH inhibition ([3]; compared to compound 11g): 3 fold

SMILES: NS(=O)(=O)c1ccc(-n2nc(CCCNC(=O)Nc3cccc(C(F)(F)F)c3)cc2-c2ccccc2)cc1 [Compound 21b, 4-(5-Phenyl-3-{3-[3-(3-trifluoromethyl-phenyl)-ureido]-propyl}-pyrazol-1-yl)-benzenesulfonamide]
IC50 [2]: > 100 µM
inhibition at 100 µM [2]: 27.2%
IC50 [4, 8]: 0.71 µM
IC50 ([4]; text of b131, unit inferred): 0.71 µM
Potency against 5-LOX, in words [5]: comparable with celecoxib
Improvement of sEH inhibition ([3]; compared to compound 11g): 20 fold
AUC [6]: 0.035 µM·h
Cmax [6]: 19 nM
Tmax [6]: 0.5 h
t1/2 [6]: 1.0 h

SMILES: Cc1ccc(-c2cc(CCCNC(=O)Nc3cccc(C(F)(F)F)c3)nn2-c2ccc(S(N)(=O)=O)cc2)cc1 [Compound 21c, 4-(5-p-Tolyl-3-{3-[3-(3-trifluoromethyl-phenyl)-ureido]-propyl}-pyrazol-1-yl)-benzenesulfonamide]
inhibition at 100 µM [2]: 12.1%
Diminished COX-2 inhibition ([4]; compared to compound 21b): 3 fold
Diminished sEH inhibition ([3]; compared to compound 21b): 3 fold

inhibition at 100 µM [2]: 6.2%
IC50 [3]: 1.55 ± 0.07 µM
SMILES: Cc1cccc(C)c1NC(=O)NCCCc1cc(-c2ccccc2)n(-c2ccc(S(N)(=O)=O)cc2)n1 [Compound 21d, 4-(3-{3-[3-(2,6-Dimethyl-phenyl)-ureido]-propyl}-5-phenyl-pyrazol-1-yl)-benzenesulfonamide]

SMILES: NS(=O)(=O)c1ccc(-n2nc(CCCNC(=O)Nc3ccc(OC(F)(F)F)cc3)cc2-c2ccccc2)cc1 [Compound 21j, 4-(5-Phenyl-3-{3-[3-(4-trifluoromethoxy-phenyl)-ureido]-propyl}-pyrazol-1-yl)-benzenesulfonamide]
IC50 [2]: > 100 µM
inhibition at 100 µM [2]: 13.8%
half-life ([7]; male, Sprague-Dawley, rat, whole blood, po, 1 mg/kg): 11.6 ± 5.6 h
AUC [7, 9]: 1.23 ± 0.521 µM·h
Cmax [7, 9]: 180 ± 71 nM
Tmax [7, 9]: 1.0 ± 0.7 h
IC50 [4, 8]: 0.92 µM
Potency against 5-LOX, in words [5]: comparable with celecoxib
EC50 [1]: 10 ± 2 µM
AUC [6]: 1.335 µM·h
Cmax [6]: 290 nM
Tmax [6]: 0.8 h
t1/2 [6]: 2.4 h

IC50 [3]: > 10 µM
SMILES: COc1ccc2c(c1)c(CC(=O)O)c(C)n2C(=O)c1ccc(Cl)cc1 [Indomethacin, reference compound]

SMILES: CS(=O)(=O)c1ccc(C2=C(c3ccccc3)C(=O)OC2)cc1 [Rofecoxib, rofecoxib, reference compound]
inhibition at 100 µM [2]: 16.5%
IC50 [3]: > 10 µM
